# Columns and labels:
# prolyl hydroxylase (PHD) = conditions: as described in Patent Document 1 (WO 2011/007856); cited from earlier work
# [1] = test system: SD rat model of renal ischemia-reperfusion injury; test: Suppressive effect on tubulointerstitial fibrosis in a rat model of renal ischemia-reperfusion injury (sirius red staining); assay type: in vivo; conditions: male SD rats, oral once daily for 6 days starting 3 days before ischemia-reperfusion injury, 0.2 or 2 mg/mL at 5 mL/kg; kidney 4 weeks after injury; FIG. 3
# Description: Experiment 2. […] Male SD rat at 6 weeks of age (CHARLES RIVER LABORATORIES JAPAN, INC.) was used as an experiment animal. 0.5% (w/v) Methylcellulose (MC) was orally administered to Vehicle Group and Sham Group, and 0.2 mg/mL or 2 mg/mL Compound A suspended in 0.5% (w/v) methylcellulose (MC) was orally administered to Compound A Group at a dose of 5 mL/kg once daily for 6 days from 3 days before the ischemia-reperfusion injury. On one day before the ischemia-reperfusion injury, the right kidney was removed under isoflurane anesthesia. The ischemia-reperfusion injury was induced by clamping the left renal vein and artery for 45 minutes and then following reperfusion under isoflurane anesthesia, whereas such a surgery treatment was not performed for the Sham Group. 4 Weeks after the ischemia-reperfusion injury, the rats were exsanguinated under isoflurane anesthesia, kidney was collected and fixed in 10% neutral buffered formalin, and then paraffin-embedded section was prepared. Staining and image analysis were performed by a similar method as described above.
# [2] = test system: hypoxia-inducible factor (HIF); conditions: as described in Patent Document 1 (WO 2011/007856); cited from earlier work
# [3] = test system: SHR/NDmcr-cp rat model of diabetic nephropathy; test: Suppressive effect on tubulointerstitial fibrosis in a rat model of diabetic nephropathy (sirius red staining); assay type: in vivo; conditions: male SHR/NDmcr-cp rats, Compound A 0.01% diet from 12 to 40 weeks of age (28 weeks), kidney sections; FIG. 1
# Description: Experiment 1. […] Male […] (Japan SLC, Inc.) was used as an experiment animal, and male WKY/Izm rat was used as a normal control (WKY group). The above-mentioned two types of rats were purchased at 6 weeks of age. After confirming that […] have hyperglycemia, hypertension, and hyperlipidemia; Compound A (0.01% diet) and vehicle (powdered diet) were administered to Compound A Group and Vehicle Group respectively from 12 weeks of age to 40 weeks of age. At 40 weeks of age, the rats were exsanguinated under isoflurane anesthesia, kidney was collected and fixed in 10% neutral buffered formalin, and then paraffin-embedded section was prepared. After deparaffinization, the section was stained with an iron hematoxylin solution for 8 minutes and then with a sirius red solution for 1 hour. The iron hematoxylin solution was prepared at the time of use by mixing equal volume of Solution 1 (dissolving 1 g hematoxylin in 100 mL ethanol) and Solution 2 (dissolving 2 g ferric chloride (FeCl3·6H2O) and 1 mL of 25% hydrochloric acid in 95 mL distilled water). […] An image of the sirius red-stained section was captured with HS All-in-One Fluorescence Microscope (BZ-9000, KEYENCE CORPORATION), and the ratio (%) of sirius red-stained area relative to the whole kidney area was measured by a built-in image analysis function.
smiles,measurement,setting,value
"O=C(O)CNC(=O)c1c(O)cc(CCc2ccccc2)n2ncnc12 [Compound A, 2-({[7-hydroxy-5-(2-phenylethyl)-[1,2,4]triazolo[1,5-a]pyridin-8-yl]carbonyl}amino)acetic acid]",prolyl hydroxylase (PHD) inhibitory action,prolyl hydroxylase (PHD),has a prolyl hydroxylase (PHD) inhibitory action
same,"tubulointerstitial fibrosis, sirius red-stained area ratio",[1],suppressive effect on tubulointerstitial fibrosis
same,stabilization of hypoxia-inducible factor (HIF),[2],stabilizes the hypoxia-inducible factor (HIF)
same,"tubulointerstitial fibrosis, sirius red-stained area ratio",[3],suppressive effect on tubulointerstitial fibrosis

# — US20240342141A1, “Method for Treating or Preventing Diabetic Nephropathy” (Japan Tobacco Inc., priority 2015, published 2024)
